Laboratory results reported in the supplement of paper PMC10307832.

Assays:
Experiment in all cases: relative viability (nuclei count vs DMSO), 5 days (fraction); higher = more cells survive
[1] = test system: RERF-LC-KJ
In short: (§1)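 Lung cancer cell lines in 1536-well plates were dosed by pin tool the day after seeding, either with one drug alone or with a fixed anchor-drug dose plus five library-drug doses (not always all listed) in √10 steps. After 5 days, cells were fixed and their nuclei stained in one step (final 0.05% Triton X-100, 1% formaldehyde, 1 ug/ml Hoechst), then counted on 4× images. Relative viability is the nuclei count in treated wells divided by that in vehicle wells. Values are medians of duplicate plates.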

[2] = test system: LCLC-103H
In short: as §1

[3] = test system: NCI-H1563
In short: as §1

[4] = test system: SW 900
In short: as §1

[5] = test system: NCI-H520
In short: as §1

[6] = test system: NCI-H522
In short: as §1

[7] = test system: LXF-289
In short: as §1

[8] = test system: NCI-H441
In short: as §1

[9] = test system: NCI-H727
In short: as §1

[10] = test system: NCI-H1792
In short: as §1

[11] = test system: PC-14
In short: as §1

[12] = test system: NCI-H1355
In short: as §1

[13] = test system: NCI-H322M
In short: as §1

[14] = test system: NCI-H460
In short: as §1

[15] = test system: NCI-H2170
In short: as §1

[16] = test system: NCI-H1651
In short: as §1

[17] = test system: NCI-H650
In short: as §1

[18] = test system: NCI-H2347
In short: as §1

[19] = test system: NCI-H1755
In short: as §1

[20] = test system: SK-MES-1
In short: as §1

[21] = test system: NCI-H596
In short: as §1

[22] = test system: NCI-H661
In short: as §1

[23] = test system: NCI-H1915
In short: as §1

[24] = test system: NCI-H3122
In short: as §1

COc1cc(N2CCC(C(N)=O)CC2)ccc1Nc1nc(N)c(Cl)c(Nc2ccccc2S(=O)(=O)C(C)C)n1 [HG-5-88-01] + CCNC(=O)c1noc(-c2cc(C(C)C)c(O)cc2O)c1-c1ccc(CN2CCOCC2)cc1 [Luminespib] (partner 0.01 µM)
relative viability ([1]; first compound 0.04 µM): 1.4 | relative viability ([1]; first compound 0.1265 µM): 1.33 | relative viability ([1]; first compound 0.4 µM): 1.25 | relative viability ([1]; first compound 1.265 µM): 1.23 | relative viability ([1]; first compound 4 µM): 0.963 | relative viability ([2]; first compound 0.04 µM): 1.08 | relative viability ([2]; first compound 0.1265 µM): 1.01 | relative viability ([2]; first compound 0.4 µM): 0.888 | relative viability ([2]; first compound 1.265 µM): 0.894 | relative viability ([2]; first compound 4 µM): 0.879 | relative viability ([3]; first compound 0.04 µM): 0.542 | relative viability ([3]; first compound 0.1265 µM): 0.539 | relative viability ([3]; first compound 0.4 µM): 0.476 | relative viability ([3]; first compound 1.265 µM): 0.485 | relative viability ([3]; first compound 4 µM): 0.519 | relative viability ([4]; first compound 0.04 µM): 0.158 | relative viability ([4]; first compound 0.1265 µM): 0.207 | relative viability ([4]; first compound 0.4 µM): 0.185 | relative viability ([4]; first compound 1.265 µM): 0.157 | relative viability ([4]; first compound 4 µM): 0.186 | relative viability ([5]; first compound 0.04 µM): 0.186 | relative viability ([5]; first compound 0.1265 µM): 0.225 | relative viability ([5]; first compound 0.4 µM): 0.197 | relative viability ([5]; first compound 1.265 µM): 0.202 | relative viability ([5]; first compound 4 µM): 0.247 | relative viability ([6]; first compound 0.04 µM): 1.06 | relative viability ([6]; first compound 0.1265 µM): 1.16 | relative viability ([6]; first compound 0.4 µM): 1.05 | relative viability ([6]; first compound 1.265 µM): 0.852 | relative viability ([6]; first compound 4 µM): 1.21 | relative viability ([7]; first compound 0.04 µM): 0.703 | relative viability ([7]; first compound 0.1265 µM): 0.733 | relative viability ([7]; first compound 0.4 µM): 0.698 | relative viability ([7]; first compound 1.265 µM): 0.721 | relative viability ([7]; first compound 4 µM): 0.897 | relative viability ([8]; first compound 0.04 µM): 0.284 | relative viability ([8]; first compound 0.1265 µM): 0.292 | relative viability ([8]; first compound 0.4 µM): 0.476 | relative viability ([8]; first compound 1.265 µM): 0.248 | relative viability ([8]; first compound 4 µM): 0.297 | relative viability ([9]; first compound 0.04 µM): 0.566 | relative viability ([9]; first compound 0.1265 µM): 0.344 | relative viability ([9]; first compound 0.4 µM): 0.337 | relative viability ([9]; first compound 1.265 µM): 0.313 | relative viability ([9]; first compound 4 µM): 0.31 | relative viability ([10]; first compound 0.04 µM): 0.442 | relative viability ([10]; first compound 0.1265 µM): 0.609 | relative viability ([10]; first compound 0.4 µM): 0.472 | relative viability ([10]; first compound 1.265 µM): 0.325 | relative viability ([10]; first compound 4 µM): 0.552 | relative viability ([11]; first compound 0.04 µM): 0.173 | relative viability ([11]; first compound 0.1265 µM): 0.209 | relative viability ([11]; first compound 0.4 µM): 0.181 | relative viability ([11]; first compound 1.265 µM): 0.131 | relative viability ([11]; first compound 4 µM): 0.194 | relative viability ([12]; first compound 0.04 µM): 0.663 | relative viability ([12]; first compound 0.1265 µM): 0.753 | relative viability ([12]; first compound 0.4 µM): 0.703 | relative viability ([12]; first compound 1.265 µM): 0.617 | relative viability ([12]; first compound 4 µM): 0.809 | relative viability ([13]; first compound 0.04 µM): 0.782 | relative viability ([13]; first compound 0.1265 µM): 0.835 | relative viability ([13]; first compound 0.4 µM): 0.555 | relative viability ([13]; first compound 4 µM): 0.627 | relative viability ([14]; first compound 0.04 µM): 0.0373 | relative viability ([14]; first compound 0.1265 µM): 0.0308 | relative viability ([14]; first compound 0.4 µM): 0.0242 | relative viability ([14]; first compound 1.265 µM): 0.0363 | relative viability ([14]; first compound 4 µM): 0.0375 | relative viability ([15]; first compound 0.04 µM): 0.749 | relative viability ([15]; first compound 0.1265 µM): 0.746 | relative viability ([15]; first compound 0.4 µM): 0.666 | relative viability ([15]; first compound 1.265 µM): 0.511 | relative viability ([15]; first compound 4 µM): 0.784 | relative viability ([16]; first compound 0.04 µM): 0.87 | relative viability ([16]; first compound 0.1265 µM): 0.976 | relative viability ([16]; first compound 0.4 µM): 1.17 | relative viability ([16]; first compound 1.265 µM): 0.771 | relative viability ([16]; first compound 4 µM): 0.934 | relative viability ([17]; first compound 0.04 µM): 0.87 | relative viability ([17]; first compound 0.1265 µM): 0.802 | relative viability ([17]; first compound 0.4 µM): 0.816 | relative viability ([17]; first compound 1.265 µM): 0.63 | relative viability ([17]; first compound 4 µM): 0.772 | relative viability ([18]; first compound 0.04 µM): 0.282 | relative viability ([18]; first compound 0.1265 µM): 0.467 | relative viability ([18]; first compound 0.4 µM): 0.32 | relative viability ([18]; first compound 1.265 µM): 0.398 | relative viability ([18]; first compound 4 µM): 0.339 | relative viability ([19]; first compound 0.04 µM): 0.401 | relative viability ([19]; first compound 0.1265 µM): 0.32 | relative viability ([19]; first compound 0.4 µM): 0.427 | relative viability ([19]; first compound 1.265 µM): 0.385 | relative viability ([19]; first compound 4 µM): 0.599 | relative viability ([20]; first compound 0.04 µM): 0.843 | relative viability ([20]; first compound 0.1265 µM): 0.82 | relative viability ([20]; first compound 0.4 µM): 0.823 | relative viability ([20]; first compound 1.265 µM): 0.782 | relative viability ([20]; first compound 4 µM): 0.689 | relative viability ([21]; first compound 0.04 µM): 1.18 | relative viability ([21]; first compound 0.1265 µM): 1.09 | relative viability ([21]; first compound 0.4 µM): 1.07 | relative viability ([21]; first compound 1.265 µM): 1.17 | relative viability ([21]; first compound 4 µM): 1.22 | relative viability ([22]; first compound 0.04 µM): 0.938 | relative viability ([22]; first compound 0.1265 µM): 0.964 | relative viability ([22]; first compound 0.4 µM): 1.04 | relative viability ([22]; first compound 1.265 µM): 1.03 | relative viability ([22]; first compound 4 µM): 0.951 | relative viability ([23]; first compound 0.04 µM): 0.774 | relative viability ([23]; first compound 0.1265 µM): 0.755 | relative viability ([23]; first compound 0.4 µM): 0.792 | relative viability ([23]; first compound 1.265 µM): 1.01 | relative viability ([23]; first compound 4 µM): 0.786 | relative viability ([24]; first compound 0.04 µM): 0.0748 | relative viability ([24]; first compound 0.1265 µM): 0.11 | relative viability ([24]; first compound 0.4 µM): 0.106 | relative viability ([24]; first compound 1.265 µM): 0.115 | relative viability ([24]; first compound 4 µM): 0.0981
